Experimental data taken from PubChem BioAssay AID1963848 (Molecular Pharmacology Branch, DTP, NCI, 2024).

Test system: 379773-124-R-J2-PDC spheroid viability
Experiment: Anticancer human tumor 379773-124-R-J2-PDC patient-derived endometrial carcinoma cell line growth inhibition [POLQ]
Conditions: spheroids with HUVEC and MSC; for IC50: curve of first compound; for viability, T/C: stronger effect = lower value
Outline: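 Complex spheroid viability model combining PDC tumour cells with endothelial (HUVEC) and MSC stromal cells. Novobiocin, ART-558 or RP6685 were tested singly and in combination with standard and investigational anticancer drugs. Each was titrated in half-log steps from near clinical Cmax, or from 10 microM where Cmax was unknown.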

[1] = second compound 0.0316 µM, first compound 0.00316 µM
[2] = second compound 0.0316 µM, first compound 0.01 µM
[3] = second compound 0.0316 µM, first compound 0.0316 µM
[4] = second compound 0.0316 µM, first compound 0.1 µM
[5] = second compound 0.0316 µM, first compound 0.316 µM
[6] = second compound 0.0316 µM, first compound 1 µM
[7] = second compound 0.1 µM, first compound 0.00316 µM
[8] = second compound 0.1 µM, first compound 0.01 µM
[9] = second compound 0.1 µM, first compound 0.0316 µM
[10] = second compound 0.1 µM, first compound 0.1 µM
[11] = second compound 0.1 µM, first compound 0.316 µM
[12] = second compound 0.1 µM, first compound 1 µM
[13] = second compound 0.316 µM, first compound 0.00316 µM
[14] = second compound 0.316 µM, first compound 0.01 µM
[15] = second compound 0.316 µM, first compound 0.0316 µM
[16] = second compound 0.316 µM, first compound 0.1 µM
[17] = second compound 0.316 µM, first compound 0.316 µM
[18] = second compound 0.316 µM, first compound 1 µM
[19] = second compound 1 µM, first compound 0.00316 µM
[20] = second compound 1 µM, first compound 0.01 µM
[21] = second compound 1 µM, first compound 0.0316 µM
[22] = second compound 1 µM, first compound 0.1 µM
[23] = second compound 1 µM, first compound 0.316 µM
[24] = second compound 1 µM, first compound 1 µM
[25] = second compound 3.16 µM, first compound 0.00316 µM
[26] = second compound 3.16 µM, first compound 0.01 µM
[27] = second compound 3.16 µM, first compound 0.0316 µM
[28] = second compound 3.16 µM, first compound 0.1 µM
[29] = second compound 3.16 µM, first compound 0.316 µM
[30] = second compound 3.16 µM, first compound 1 µM
[31] = second compound 10 µM, first compound 0.00316 µM
[32] = second compound 10 µM, first compound 0.01 µM
[33] = second compound 10 µM, first compound 0.0316 µM
[34] = second compound 10 µM, first compound 0.1 µM
[35] = second compound 10 µM, first compound 0.316 µM
[36] = second compound 10 µM, first compound 1 µM
[37] = second compound 0.0316 µM, first compound 3.16 µM
[38] = second compound 0.0316 µM, first compound 10 µM
[39] = second compound 0.1 µM, first compound 3.16 µM
[40] = second compound 0.1 µM, first compound 10 µM
[41] = second compound 0.316 µM, first compound 3.16 µM
[42] = second compound 0.316 µM, first compound 10 µM
[43] = second compound 1 µM, first compound 3.16 µM
[44] = second compound 1 µM, first compound 10 µM
[45] = second compound 3.16 µM, first compound 3.16 µM
[46] = second compound 3.16 µM, first compound 10 µM
[47] = second compound 10 µM, first compound 3.16 µM
[48] = second compound 10 µM, first compound 10 µM
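Note: spheroids exposed to drugs for seven days before readout.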
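Throughout, for viability, T/C: percent viability relative to DMSO vehicle control taken as 100%.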

C=CCn1c(=O)c2cnc(Nc3ccc(N4CCN(C)CC4)cc3)nc2n1-c1cccc(C(C)(C)O)n1 + Nc1ccc(C#CCN(C(=O)Cc2ncc(C(F)(F)F)cc2C(F)(F)F)c2ccc(F)cc2)nn1
IC50 (second compound 0.0316 µM): 0.447 µM
IC50 (second compound 0.1 µM): 0.488 µM
IC50 (second compound 0.316 µM): 0.436 µM
IC50 (second compound 1 µM): 0.447 µM
IC50 (second compound 3.16 µM): 0.499 µM
IC50 (second compound 10 µM): 0.451 µM
viability, T/C [1]: 90.6%
viability, T/C [2]: 101%
viability, T/C [3]: 93.7%
viability, T/C [4]: 104%
viability, T/C [5]: 70.3%
viability, T/C [6]: 2.92%
viability, T/C [7]: 95.5%
viability, T/C [8]: 99.2%
viability, T/C [9]: 107%
viability, T/C [10]: 111%
viability, T/C [11]: 78.1%
viability, T/C [12]: 3.57%
viability, T/C [13]: 95.7%
viability, T/C [14]: 91.7%
viability, T/C [15]: 97%
viability, T/C [16]: 92.4%
viability, T/C [17]: 68.1%
viability, T/C [18]: 3.12%
viability, T/C [19]: 103%
viability, T/C [20]: 103%
viability, T/C [21]: 100%
viability, T/C [22]: 97.5%
viability, T/C [23]: 69.8%
viability, T/C [24]: 3.73%
viability, T/C [25]: 113%
viability, T/C [26]: 99.3%
viability, T/C [27]: 96.1%
viability, T/C [28]: 105%
viability, T/C [29]: 80.9%
viability, T/C [30]: 3.02%
viability, T/C [31]: 101%
viability, T/C [32]: 88.8%
viability, T/C [33]: 92.3%
viability, T/C [34]: 88.6%
viability, T/C [35]: 71.4%
viability, T/C [36]: 2.81%

CC[C@@]1(O)C(=O)OCc2c1cc1n(c2=O)Cc2cc3c(CN(C)C)c(O)ccc3nc2-1 + Nc1ccc(C#CCN(C(=O)Cc2ncc(C(F)(F)F)cc2C(F)(F)F)c2ccc(F)cc2)nn1
IC50 (second compound 0.0316 µM): 0.0295 µM
IC50 (second compound 0.1 µM): 0.029 µM
IC50 (second compound 0.316 µM): 0.026 µM
IC50 (second compound 1 µM): 0.0264 µM
IC50 (second compound 3.16 µM): 0.0245 µM
IC50 (second compound 10 µM): 0.0225 µM
viability, T/C (second compound 0.0316 µM, first compound 0.000316 µM): 96.7%
viability, T/C (second compound 0.0316 µM, first compound 0.001 µM): 89%
viability, T/C [1]: 80.7%
viability, T/C [2]: 96%
viability, T/C [3]: 47.3%
viability, T/C [4]: 22.3%
viability, T/C (second compound 0.1 µM, first compound 0.000316 µM): 90.8%
viability, T/C (second compound 0.1 µM, first compound 0.001 µM): 87.6%
viability, T/C [7]: 91.4%
viability, T/C [8]: 89.6%
viability, T/C [9]: 46.7%
viability, T/C [10]: 19.8%
viability, T/C (second compound 0.316 µM, first compound 0.000316 µM): 93%
viability, T/C (second compound 0.316 µM, first compound 0.001 µM): 96.3%
viability, T/C [13]: 102%
viability, T/C [14]: 86.2%
viability, T/C [15]: 42.6%
viability, T/C [16]: 20.8%
viability, T/C (second compound 1 µM, first compound 0.000316 µM): 100%
viability, T/C (second compound 1 µM, first compound 0.001 µM): 92%
viability, T/C [19]: 92.2%
viability, T/C [20]: 83.7%
viability, T/C [21]: 43.6%
viability, T/C [22]: 21.2%
viability, T/C (second compound 3.16 µM, first compound 0.000316 µM): 110%
viability, T/C (second compound 3.16 µM, first compound 0.001 µM): 90.5%
viability, T/C [25]: 85.8%
viability, T/C [26]: 85.1%
viability, T/C [27]: 39.6%
viability, T/C [28]: 18.9%
viability, T/C (second compound 10 µM, first compound 0.000316 µM): 94%
viability, T/C (second compound 10 µM, first compound 0.001 µM): 79.9%
viability, T/C [31]: 81.9%
viability, T/C [32]: 83.3%
viability, T/C [33]: 36%
viability, T/C [34]: 21.8%

CCc1c2c(nc3ccc(O)cc13)-c1cc3c(c(=O)n1C2)COC(=O)[C@]3(O)CC + Nc1ccc(C#CCN(C(=O)Cc2ncc(C(F)(F)F)cc2C(F)(F)F)c2ccc(F)cc2)nn1
IC50 (second compound 0.0316 µM): < 0.00316 µM
IC50 (second compound 0.1 µM): 0.00352 µM
IC50 (second compound 0.316 µM): < 0.00316 µM
IC50 (second compound 1 µM): < 0.00316 µM
IC50 (second compound 3.16 µM): < 0.00316 µM
IC50 (second compound 10 µM): < 0.00316 µM
viability, T/C [1]: 45.5%
viability, T/C [2]: 17.6%
viability, T/C [3]: 12.6%
viability, T/C [4]: 4.69%
viability, T/C [5]: 3.2%
viability, T/C [6]: 1.03%
viability, T/C [7]: 53.6%
viability, T/C [8]: 16.7%
viability, T/C [9]: 13.1%
viability, T/C [10]: 4.92%
viability, T/C [11]: 1.48%
viability, T/C [12]: 0.65%
viability, T/C [13]: 48.6%
viability, T/C [14]: 12.6%
viability, T/C [15]: 11.1%
viability, T/C [16]: 4.23%
viability, T/C [17]: 1.5%
viability, T/C [18]: 0.7%
viability, T/C [19]: 47.8%
viability, T/C [20]: 13.7%
viability, T/C [21]: 10.4%
viability, T/C [22]: 5.54%
viability, T/C [23]: 1.41%
viability, T/C [24]: 3.04%
viability, T/C [25]: 47.9%
viability, T/C [26]: 15.1%
viability, T/C [27]: 9.79%
viability, T/C [28]: 3.28%
viability, T/C [29]: 1.52%
viability, T/C [30]: 0.83%
viability, T/C [31]: 41.9%
viability, T/C [32]: 14.7%
viability, T/C [33]: 11.6%
viability, T/C [34]: 4.49%
viability, T/C [35]: 1.89%
viability, T/C [36]: 0.9%

CNCc1ccc(-c2[nH]c3cc(F)cc4c3c2CCNC4=O)cc1 + Nc1ccc(C#CCN(C(=O)Cc2ncc(C(F)(F)F)cc2C(F)(F)F)c2ccc(F)cc2)nn1
IC50 (second compound 0.0316 µM): > 10 µM
IC50 (second compound 0.1 µM): > 10 µM
IC50 (second compound 0.316 µM): > 10 µM
IC50 (second compound 1 µM): > 10 µM
IC50 (second compound 3.16 µM): > 10 µM
IC50 (second compound 10 µM): > 10 µM
viability, T/C [3]: 92.7%
viability, T/C [4]: 91.7%
viability, T/C [5]: 91.2%
viability, T/C [6]: 101%
viability, T/C [37]: 99.8%
viability, T/C [38]: 99.7%
viability, T/C [9]: 84.4%
viability, T/C [10]: 90.7%
viability, T/C [11]: 87.5%
viability, T/C [12]: 95.8%
viability, T/C [39]: 101%
viability, T/C [40]: 79.6%
viability, T/C [15]: 101%
viability, T/C [16]: 95.4%
viability, T/C [17]: 85.9%
viability, T/C [18]: 87.1%
viability, T/C [41]: 93.8%
viability, T/C [42]: 93.3%
viability, T/C [21]: 90.4%
viability, T/C [22]: 101%
viability, T/C [23]: 91.2%
viability, T/C [24]: 91.2%
viability, T/C [43]: 92.9%
viability, T/C [44]: 83.4%
viability, T/C [27]: 88.2%
viability, T/C [28]: 86%
viability, T/C [29]: 84.8%
viability, T/C [30]: 86%
viability, T/C [45]: 96.3%
viability, T/C [46]: 79.4%
viability, T/C [33]: 102%
viability, T/C [34]: 88.4%
viability, T/C [35]: 85.3%
viability, T/C [36]: 87.1%
viability, T/C [47]: 96.6%
viability, T/C [48]: 86.4%

O=C(c1cc(Cc2n[nH]c(=O)c3ccccc23)ccc1F)N1CCN(C(=O)C2CC2)CC1 + Nc1ccc(C#CCN(C(=O)Cc2ncc(C(F)(F)F)cc2C(F)(F)F)c2ccc(F)cc2)nn1
IC50 (second compound 0.0316 µM): 9.3 µM
IC50 (second compound 0.1 µM): 8.88 µM
IC50 (second compound 0.316 µM): > 10 µM
IC50 (second compound 1 µM): 9.76 µM
IC50 (second compound 3.16 µM): > 10 µM
IC50 (second compound 10 µM): 9.98 µM
viability, T/C [3]: 87.2%
viability, T/C [4]: 93.1%
viability, T/C [5]: 82.5%
viability, T/C [6]: 89.9%
viability, T/C [37]: 87.8%
viability, T/C [38]: 47.5%
viability, T/C [9]: 85.1%
viability, T/C [10]: 94.2%
viability, T/C [11]: 94%
viability, T/C [12]: 83%
viability, T/C [39]: 91.1%
viability, T/C [40]: 45.5%
viability, T/C [15]: 89.8%
viability, T/C [16]: 90%
viability, T/C [17]: 92.7%
viability, T/C [18]: 91.3%
viability, T/C [41]: 82%
viability, T/C [42]: 50.6%
viability, T/C [21]: 95.1%
viability, T/C [22]: 100%
viability, T/C [23]: 94%
viability, T/C [24]: 85.2%
viability, T/C [43]: 83.1%
viability, T/C [44]: 48.4%
viability, T/C [27]: 88.1%
viability, T/C [28]: 88.7%
viability, T/C [29]: 84.7%
viability, T/C [30]: 93.2%
viability, T/C [45]: 89.8%
viability, T/C [46]: 52.2%
viability, T/C [33]: 87.8%
viability, T/C [34]: 89.2%
viability, T/C [35]: 89.3%
viability, T/C [36]: 96.5%
viability, T/C [47]: 84.5%
viability, T/C [48]: 49.5%
